Values joined by “and” are separate entries in the source; they are usually repeats but may differ in a detail not shown here. Identical values can stand only once. Marks after values point to notes of the source that are not given here.
Key:
SrtA [1] = target: T1, SrtA (Staphylococcus aureus, UniProt Q2FV99); assay: FRET assay of SrtA inhibition (cleavage of Abz-LPATG-Dap(Dnp)-NH2); type: biochemical, S. aureus USA300
T1 construct: 6xHis (N); made in house; host or cells: E. coli BL21(DE3), pET28a
Description: Fluorescence resonance energy transfer (FRET) was detected the activity of orientin against SrtA, as previously described. The reaction mixture (300 µL) consisted of the reaction buffer (50 mM Tris-HCl, 5 mM CaCl2, 150 mM NaCl, pH 7.5), 4 µM purified SrtA, and various concentrations of orientin (0–200 µM). The sample was incubated at 37°C for 1 h, followed by the addition of substrate peptide (10 μM). After incubation for another hour at 37°C, the fluorescence intensity value was detected at the excitation and emission wavelengths of 350 nm and 495 nm, respectively.

SrtA [2] = target: T1, SrtA; assay: Reversible inhibition assay of SrtA; type: biochemical, S. aureus USA300; conditions: SrtA incubated with 10-fold IC50 of orientin, then diluted
Description: The 10-fold IC50 concentration of orientin was incubated with 100 µL of SrtA (150 µM) for 1 h at 37°C, followed by the addition of 9.9 mL reaction buffer. Then, 190 µL of the mixture was added to each well, and substrate peptide (10 μL) was added until a final concentration of 10 μM was achieved. A multifunctional microplate reader was used to record the fluorescence intensity at 350 nm for excitation and 495 nm for emission.

S. aureus USA300 [3] = assay: Broth microdilution MIC; type: cell-based; conditions: Staphylococcus aureus, USA300, 16 h
Description: (§1) The broth microdilution method was performed to determine the MIC of orientin for S. aureus USA300 as previously described. Briefly, orientin was diluted two-fold serially in a 96-well plate at concentrations ranging from 2 to 1024 µg/mL, followed by inoculation with S. aureus USA300 (10^6 CFU/mL) and incubation at 37°C for 16 h. After incubation, the absorbance (OD) value at 600 nm was measured. For the growth curve experiment, the overnight bacterial culture was diluted in fresh BHI (1:100) with various concentrations of orientin (0–200 µM). S. aureus ΔsrtA was used as the control group. Each sample was cultured at 37°C, and the OD600 was measured at 1 h intervals.

S. aureus USA300 [4] = assay: Growth curve assay; type: cell-based; conditions: 200 µM orientin, growth curve in BHI
Description: as §1

S. aureus USA300 [5] = assay: Adherence of S. aureus to immobilized fibrinogen; type: cell-based; conditions: WT S. aureus treated with 200 µM orientin
Description: The S. aureus USA300 was grown in BHI broth for 12 h and then diluted (1:100) in fresh BHI containing different concentrations of orientin, then continued to culture until an OD600 reached 0.5. The ∆srtA mutant was cultured under the same conditions as a positive control. Subsequently, the bacterial culture was added to a 96-well plate previously coated with bovine fibrinogen (20 µg/mL). Then, the sample was incubated for 2 h at 37°C, and 25% (v/v) formaldehyde was added to fix the adherent bacterial cells for 30 min after discarding the suspension. The formaldehyde was removed, and the plate was washed twice with PBS, following which, crystal violet was added to stain the cells for 20 min. The wells were gently washed with PBS and dried, and the OD value at 570 nm was measured.

S. aureus biofilm = assay: Crystal violet biofilm assay; type: cell-based; conditions: 200 µM orientin, compared to the WT group (untreated S. aureus)
Description: After overnight culturing, S. aureus was diluted using fresh BHI by 1:100, and different concentrations of orientin ranging from 0 to 200 μM were added with shaking at 37°C to OD600 of 0.6. The bacterial culture (5 µL) was then added to BHI broth containing 1% glucose to a final volume of 200 µL and continue cultured for 18 h. Then, the medium was discarded carefully and washed three times with PBS. Then, the biofilms were stained with a 0.1% (w/v) crystal violet solution for 20 min at ambient temperature conditions. The crystal violet solution was discarded, and the wells were washed thrice with sterile PBS. After drying the plates, 95% ethanol was added into each well, and the absorbance at 570 nm was measured.

[6] = system: Staphylococcal protein A (SpA) anchoring to the cell wall; assay: FITC-IgG binding to Staphylococcal protein A (SpA); type: cell-based, S. aureus; conditions: 200 µM orientin, compared to the WT group
Description: Overnight culture of S. aureus and S. aureus ΔsrtA was diluted 1:1000 in TSB medium, and different concentrations of orientin (0–200 µM) were added to the culture with shaking at 37°C until the logarithmic growth phase. The bacteria collected by centrifugation were washed thrice with PBS, after which the bacterial precipitate was resuspended with 50 µL of 1:200 diluted FITC-labeled rabbit IgG (Solarbio, Beijing, China). Then, the bacterial precipitate was incubated at ambient temperature for 30 min, and the harvested bacteria were rinsed thrice by PBS. Then, the bacteria were resuspended in 100 µL PBS and added to a black 96-well plate. The Multimode Microplate Reader (Tecan, Spark 20 M) was used to measure the fluorescence intensity at 490 nm for excitation and 520 nm for emission.

[7] = system: S. aureus internalization into A549 cells; assay: Invasion assay of S. aureus into A549 cells; type: cell-based; conditions: S. aureus treated with 100 µM orientin, vs untreated WT, P < 0.001
Description: The A549 cells were routinely sub-cultured at 37°C with 5% CO2. Cells in the logarithmic growth phase were seeded in a 24-well plate at a density of 2.5 × 10^5 per well and cultured for 20 h. S. aureus was mixed with orientin ranging from 0 to 100 µM and cultured at 37°C until an OD600 of 1.0 was reached. Then, the cell culture medium was discarded, and the cells were resuspended in DMEM medium. After that, a bacterial suspension containing 2 × 10^7 CFU/mL was added to each well. After incubation for 2 h, 300 µg/mL gentamicin was added to stop the invasion. Then, the cells were lysed after washing with sterile PBS and spread on BHI agar plates to calculate the number of colonies in each sample.

expression of SrtA = assay: Western blot analysis of SrtA expression; type: cell-based, S. aureus; conditions: orientin 0, 25, 50, 100 or 200 µM
Description: An equal amount of protein extract was separated using SDS-PAGE, followed by transfer to the polyvinylidene difluoride (PVDF) membrane (GE Healthcare, UK). The membrane was incubated in 5% BSA overnight at 4°C. After washing with TBST (TBS + 1‰ Tween 20), the membrane was incubated with rabbit anti-SrtA polyclonal antibody (1:3000) at room temperature. After incubation for 2 h, the membrane was washed thrice and incubated with HRP-conjugated goat anti-rabbit IgG (diluted 1:10,000 in TBST) for 2 h. After washing thrice, the membrane was incubated with Super ECL Plus (US EVERBRIGHT, Suzhou, China) and visualized in an ECL detection system (GE Healthcare, UK). The cytoplasmic protein ClpP was treated in the same way as an internal control. Band quantification was performed using the software ImageQuant TL.

WT-SrtA = target: T2, WT-SrtA (Staphylococcus aureus, UniProt Q2FV99); assay: Fluorescence quenching assay, WT-SrtA; type: binding, S. aureus USA300
T2 construct: 6xHis (N); made in house; host or cells: E. coli BL21(DE3), pET28a
Description: (§2) The sequence of srtA from S. aureus USA300 was retrieved from the GenBank database. The srtA gene lacking the transmembrane domain (N1–59) was amplified using PCR. The PCR product was then digested and cloned in the BamHI/XhoI restriction sites of the pET28a vector, yielding pET28a-srtA. The site-directed mutagenesis of T93A-SrtA, E105A-SrtA, and C184A-SrtA was conducted using pET28a-srtA using a Multi-Site Mutagenesis Kit (Transgen, Beijing, China). The expression vector was then transformed into the BL21(DE3) expression host, and the bacteria were cultured in BHI medium supplemented with kanamycin (50 µg/mL) at 37°C. In addition, isopropyl-β-D-thiogalactoside (1 mM) was used to induce recombinant SrtA for 4 h at 16°C. Whole-cell lysates of bacteria were prepared through ultrasonic crushing. Recombinant SrtAΔN59 or its mutants were purified using the 6 × His/Ni-NTA system refer to a previous study.
(§3) The binding constants (KA) of orientin to SrtA were determined using the fluorescence quenching assay. The spectra were recorded in the wavelength interval of 280–400 nm. The protocols used to perform the measurements have previously been described [[31–33]].

D170A = assay: Fluorescence quenching assay, SrtA mutant D170A; type: binding, S. aureus USA300
E105A = target: T3, E105A (Staphylococcus aureus, UniProt Q2FV99, E105A); assay: Fluorescence quenching assay, SrtA mutant E105A; type: binding, S. aureus USA300
T3 construct: 6xHis (N); made in house; host or cells: E. coli BL21(DE3), pET28a
Description: as §2, §3

C184A = target: T4, C184A (Staphylococcus aureus, UniProt Q2FV99, C184A); assay: Fluorescence quenching assay, SrtA mutant C184A; type: binding, S. aureus USA300
T4 construct: 6xHis (N); made in house; host or cells: E. coli BL21(DE3), pET28a
Description: as §2, §3

S. aureus = assay: Pneumonia model experiment; type: in vivo, C57BL/6 J mice; conditions: mice
Description: The pneumonia model was induced as previously described in 7-week-old female C57BL/6 J mice. For survival experiments, a group of 10 mice was infected with 30 µL of S. aureus culture (2 × 10^8 CFUs) via the intranasal route. An hour after infection, the mice were intraperitoneally injected with orientin (100 mg/kg) at intervals of 12 h. Similarly, mice in the control group were injected with sterile PBS containing 0.5% DMSO. The mice were monitored every 12 h for 96 h after administration to calculate the survival rate. For estimation of the bacterial count in the lung tissue and histopathological analysis, the mice were infected with 30 µL (1 × 10^8 CFUs) of S. aureus cultures, and the infection was allowed to progress for 2 d. The mice were then sacrificed, and the lungs were collected, weighed, and homogenized. Then, appropriate dilutions were plated on BHI-agar plates until a single colony appeared and counted. The lung tissues of mice in each group were aseptically separated and fixed in 10% formalin. The lung tissue sections were observed under an optical microscope after conventional hematoxylin and eosin (H&E) staining.

For `O=c1cc(-c2ccc(O)c(O)c2)oc2c([C@@H]3O[C@H](CO)[C@@H](O)[C@H](O)[C@H]3O)c(O)cc(O)c12` [orientin], the IC50 (SrtA [1]) was 50.4 ± 0.51 µM, the “reversibility of SrtA inhibition” value (SrtA [2]) was “reversible inhibitor” and the “activity of SrtA recovered (relative activity)” value (SrtA [2]; untreated SrtA = 100% activity) was 84.77 ± 1.28% and 84.77%. For the same compound, the MIC (S. aureus USA300 [3]) was greater than 512 µg/mL, the “effect on S. aureus growth” value (S. aureus USA300 [4]) was “little inhibitory effect” and the “adhesion of S. aureus to fibrinogen” value (S. aureus USA300 [5]) was 33.10 ± 1.41%. The biofilm biomass (S. aureus biofilm) was 31.90 ± 0.25%, the “relative activity (fluorescence of FITC-IgG bound to SpA)” value [6] was 37.32 ± 1.84% and the “ability of S. aureus to invade A549 cells” value [7] was “decreased significantly”. For the same compound, the “effect on the expression of SrtA” value (expression of SrtA) was “not to affect the expression of SrtA”, the Kd (WT-SrtA) was 14 µM and the KA (D170A) was 5.37* 1 × 10^4 l/mol. For the same compound, the Kd (E105A) was 23.5 µM, the Kd (C184A) was 32.1 µM and the “number of viable S. aureus in the lung tissue” value (S. aureus; 100 mg/kg orientin, 2 d after infection, vs untreated group, P < 0.001) was “significantly reduced”. For the same compound, the lung histopathology (S. aureus; 100 mg/kg orientin, H&E staining) was “inflammatory symptoms were significantly reduced” and the survival rate (S. aureus; lethal dose of S. aureus intranasal, 100 mg/kg orientin intraperitoneally at intervals of 12 h, within 72 h) was 60%.
